# Measurements reported in patent US20080167319A1, “7-(4-(4-[3-CHLORO-2-(TRIFLUOROMETHYL)PHENYL]PIPERAZIN-1-YL)BUTOXY)-[1,8]-NAPHTHYRIDIN-2(1H)-ONE” (Pfizer Inc., priority 2007, published 2008).
# Key:
# [1] = target: T1, D2 receptor (CHO pro-5 cells) (Homo sapiens, UniProt P14416); experiment: [3H]Thymidine Uptake Assay for Dopamine D2 Intrinsic Activity; assay type: cell-based; settings: relative to 1 μM Quinpirole classified as 100% intrinsic activity; HCl salt tested
# T1 construct: expressed in transfected cells; host or cells: CHO pro-5 cells
# T1 sequence (P14416 whole entry): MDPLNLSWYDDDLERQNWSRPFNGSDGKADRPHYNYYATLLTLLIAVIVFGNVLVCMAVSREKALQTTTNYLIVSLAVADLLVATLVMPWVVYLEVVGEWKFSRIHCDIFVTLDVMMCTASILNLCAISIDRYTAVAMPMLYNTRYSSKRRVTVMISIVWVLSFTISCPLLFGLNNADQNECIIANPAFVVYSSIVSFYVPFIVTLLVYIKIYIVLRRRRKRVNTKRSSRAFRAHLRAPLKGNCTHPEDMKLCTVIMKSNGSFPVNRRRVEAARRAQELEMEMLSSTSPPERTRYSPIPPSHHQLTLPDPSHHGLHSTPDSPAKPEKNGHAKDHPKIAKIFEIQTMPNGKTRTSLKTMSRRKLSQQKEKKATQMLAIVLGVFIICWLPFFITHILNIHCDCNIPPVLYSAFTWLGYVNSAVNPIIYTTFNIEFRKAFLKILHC
# Experimental: 3) [^3H]Thymidine Uptake Assay for Dopamine D2 Intrinsic Activity
# The assay was conducted using CHO pro-5 cells containing the D2 receptor and conventional 96-well sterile plates. Serum was removed from the cells by washing the cells twice with 200 μL of serum-free media. 90 μL serum-free media was added to each well. The plates ware incubated for two to three hours. 10 μL of serum-containing media, as a positive control, vehicle (serum-free media), antagonist control (haloperidol), or the test compound, and standards (10 μL of a 10 μM solution for a final concentration of 1 μM) in serum-free media were added to wells. The plates were returned to the incubator. Eighteen hours later [^3H]thymidine was added (0.5 μCi/well in 10 μL of serum-free media) and the plates were returned to the incubator. Four hours later trypsin (0.25%) was added (100 μL/well). The plates were returned to the incubator, once again. One hour later the assay was terminated by rapid filtration through Whatman GF/C glass fiber filters. Filters were washed four times with […] of 50 mM Tris-HCl pH 7.0 buffer, for example, using a Brandel MLR-96T cell harvester. Radioactivity remaining on the filters was estimated with a Wallac 1205 Betaplate liquid scintillation counter (50% efficiency). Intrinsic activity is defined as total uptake (1 μM Quinpirole) minus serum-free media (no uptake). […]
# [2] = target: T2, Serotonin 1A (5-HT1A) Receptor (Homo sapiens, UniProt P08908); experiment: Serotonin 1A (5-HT1A) Receptor Binding Assay ([3H]8-OH-DPAT, transfected HeLa membranes); settings: [3H]8-OH-DPAT 2.0 nM, transfected HeLa cell membranes; HCl salt tested
# T2 construct: expressed in transfected cells; host or cells: HeLa cells
# T2 sequence (P08908 1-422): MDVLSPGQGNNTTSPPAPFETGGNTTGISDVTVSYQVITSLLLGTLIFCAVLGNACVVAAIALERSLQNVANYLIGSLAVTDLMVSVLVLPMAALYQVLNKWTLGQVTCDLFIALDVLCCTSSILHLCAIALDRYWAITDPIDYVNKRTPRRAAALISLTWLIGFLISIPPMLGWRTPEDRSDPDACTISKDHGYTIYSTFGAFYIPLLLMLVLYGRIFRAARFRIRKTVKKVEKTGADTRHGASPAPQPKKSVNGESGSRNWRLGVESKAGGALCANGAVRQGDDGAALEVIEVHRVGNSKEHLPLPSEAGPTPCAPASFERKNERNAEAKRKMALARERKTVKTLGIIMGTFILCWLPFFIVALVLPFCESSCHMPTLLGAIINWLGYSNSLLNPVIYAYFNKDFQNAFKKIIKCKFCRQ
# Experimental: 2) Serotonin 1A (5-HT1A) Receptor Binding Assay
# The assay was conducted in membranes prepared from HeLa cells transfected with the cDNA for […] receptors using [^3H] 8-hydroxy-2-(di-n-propylamino)-tetraline ([^3H] 8-OH-DPAT, final concentration 2.0 nM) as reference […] receptor agonist. Assay buffer consisted of 50 mM Tris-HCl with 10 mM MgSO4, 0.5 mM EDTA and 0.1% ascorbic acid, at pH 7.4 (250 μL total volume). Triplicate samples containing (in order of addition) the test compound, 100× in 100% DMSO, [^3H] 8-OH-DPAT and cell homogenate was incubated for 2 hr at room temperature. Experiments were terminated by rapid filtration through Whatman GF/B glass fiber filters soaked in assay buffer with 0.3% PEI by washing three timnes with 1 mL of wash buffer (50 mM Tris-HCl, pH 7.4) using a Brandel MLR-96T cell harvester. Specific binding (85%) was determined in the presence of 10 μM 8-OH-DPAT.
# h5-HT1A (CHO p-5 cells) = target: T3, h5-HT1A (CHO p-5 cells) (Homo sapiens, UniProt P08908); experiment: [3H]Thymidine Uptake Assay for Serotonin 1A Intrinsic Activity; assay type: cell-based; settings: relative to 1 μM (+)-8-OH-DPAT classified as 100% response; HCl salt tested
# T3 construct: expressed in transfected cells
# T3 sequence (P08908 1-422): T2 sequence (P08908 1-422)
# Experimental: 4) [^3H]Thymidine Uptake Assay for Serotonin 1A Intrinsic Activity
# CHO p-5 cells transfected with h5-HT1A cDNA were seeded into 96-well plates at a density of approximately […] cells/well. These were grown for 3 days at 37° C. in an incubator with alpha minimum essential medium (αMEM) and 10% fetal calf serum containing penicillin (100 U/mL) and streptomycin (100 μg/mL). The wells were then rinsed by washing twice with 200 μL of serum-free media, and 90 μL serum-free media was added to each well. The plates were incubated for two to three hours, then 10 μL of serum-containing media (positive control), vehicle (10 μL DMSO), negative control (10 μL of an antagonist in DMSO) or different concentrations of the test compound and standards (10 μL DMSO solution) in serum-free media were added to appropriate wells. The plates were incubated for 18 hrs. Then [^3H]thymidine was added (0.5 μCi/well in 10 μL of serum-free media) after which the plates were returned to the incubator. Four hours later, trypsin (0.25%) was added (100 μL/well), and plates were returned again to the incubator. The assay was terminated 1 hr later by rapid filtration through Whatman GF/C glass fiber filters. […] Radioactivity remaining on the filters was estimated with a Wallac 1205 Betaplate liquid scintillation counter (50% efficiency). […]
# [3] = target: T4, Dopamine D2 Receptor (hD2L) (Homo sapiens, UniProt P14416); experiment: Dopamine D2 Receptor Binding Assay ([3H]spiperone, CHO-hD2L membranes); settings: [3H]spiperone 0.4 nM, HCl salt tested
# T4 construct: expressed in transfected cells; host or cells: CHO cells (CHO-hD2L)
# T4 sequence (P14416 whole entry): as the sequence (P14416 whole entry) above
# Experimental: 1) Dopamine D2 Receptor Binding Assay
# [^3H]Spiperone binding to a membrane preparation from CHO-hD2L cells was carried out in 250 μL of 50 mM Tris-HCl buffer containing 100 mM NaCl, 1 mM MgCl2 and 1% DMSO at pH 7.4. Duplicate samples containing (in order of addition) the test compound, 0.4 nM [^3H]spiperone and approximately 12 μg protein were incubated for 120 min at room temperature. Bound radioligand was separated by rapid filtration under reduced pressure through Whatman GF/B glass fiber filters previously treated with 0.3% polyethyleneimine (PEI). Radioactivity retained on the filter was determined by liquid scintillation spectrophotometry. Specific binding determined in the presence of 1 mM haloperidol was 95%.
structure (smiles),measurement,setting,value
"O=c1ccc2ccc(OCCCCN3CCN(c4cccc(Cl)c4C(F)(F)F)CC3)nc2[nH]1 [compound of formula (I), 7-(4-{4-[3-chloro-2-(trifluoromethyl)phenyl]piperazine-1-yl}butoxy)-[1,8]-naphthyridin-2(1H)-one]",Emax,[1],55%
same,Ki,[2],4 nM
same,Emax,h5-HT1A (CHO p-5 cells),90%
same,Ki,[3],3.9 nM
